From patent US8945639B2, “Treatment of inflammatory bowel disease” (Provexis (IBD) Limited, priority 2003, dated 2015)

B1: fetuin: fetuin, glycoconjugate tested at 50 μg/ml (protein, UniProt P12763 19-359, looked up)
Alpha-2-HS-glycoprotein: IPLDPVAGYKEPACDDPDTEQAALAAVDYINKHLPRGYKHTLNQIDSVKVWPRRPTGEVYDIEIDTLETTCHVLDPTPLANCSVRQQTQHAVEGDCDIHVLKQDGQFSVLFTKCDSSPDSAEDVRKLCPDCPLLAPLNDSRVVHAVEVALATFNAESNGSYLQLVEISRAQFVPLPVSVSVEFAVAATDCIAKEVVDPTKCNLLAEKQYGFCKGSVIQKALGGEDVRVTCTLFQTQPVIPQPQPDGAEAEAPSAVPDAAGPTPSAAGPPVASVVVGPSVVAVPLPLHRAHYDLRHTFSGVASVESSSGEAFHVGKTPIVGQPSIPGGPVRLCPGRIRYFKI
B2: asialofetuin: asialofetuin, glycoconjugate tested at 50 μg/ml (protein, UniProt P12763 19-359, looked up)
Alpha-2-HS-glycoprotein: B1 Alpha-2-HS-glycoprotein
modifications: desialylated
notes: asialofetuin, glycoconjugate tested at 50 μg/ml

test system: agglutinating mucosally-associated E. coli (haemagglutination of human red blood cells); assay: Haemagglutination assays with different oligosaccharides/fibres (Example 1); format: cell-based; details: agglutinating E. coli from IBD subjects, 'in all cases', mannose, fucose, galactose 0.4M, fetuin, asialofetuin 50 μg/ml
Method: Blood was taken from a healthy human volunteer and placed into a heparinised container. The blood was washed three times in PBS by centrifugation at 1000 rpm for 5 minutes and by resuspending the pellet in fresh PBS. After the third wash, the pellet was resuspended in PBS so as to give a 1% red blood cell solution. Bacteria identified as E. coli, and 5 strains of CD-ileal associated E. coli were grown so as to obtain maximum fimbrial expression (see above). Bacteria were suspended in saline to give an OD equal to MacFarland standard 5. Doubling dilutions of bacterial suspension were performed in 96 well U-bottomed haemagglutination plates (Dynex technologies) to a final volume of 100 μl per well. 50 μl of 1% rbcs was added to each well. The plate was tapped gently to mix the contents of the wells and was left at room temperature for approximately 2 hrs.
Further characterisation of bacterial haemagglutination was carried out using a panel of oligosaccharides/fibers. The structures tested were: mannose (0.4M), fucose (0.4M), galactose (0.4M), fetuin (50 μg/ml), asialofetuin (50 μg/ml), bovine submaxillary mucin (BSM), hydrolysed BSM, ovine submaxilliary mucin (OSM), lactose, lactulose, siayl Tn, GalGalNAc, N-Glycolyneuraminic acid, N-acetylneuraminic acid, 3′-n-acetylneuraminyl-lactose, 6′-n-acetylneuraminyl-lactose, melibiose, plantain, stachyose, milk derived galacto-oligosaccharide, raffinose, pectin, polygalacturonic acid, and paralacto-n-hexaose.
Soluble fiber (prepared according to 1.1.12.2) and other carbohydrates were tested for their ability to modulate agglutination, attachment and invasion of cells from subjects with IBD.

Molecule | inhibition of agglutination
CC(=O)N[C@H]1[C@H]([C@H](O)[C@H](O)CO)O[C@@](O[C@H]2[C@@H](O)[C@@H](CO)O[C@@H](O[C@H]3[C@H](O)[C@@H](O)C(O)O[C@@H]3CO)[C@@H]2O)(C(=O)O)C[C@@H]1O (stereo partly shown) [3′-n-acetylneuraminyl-lactose] | non-inhibitory
O=C(CO)N[C@H]1[C@H]([C@H](O)[C@H](O)CO)OC(O)(C(=O)O)C[C@@H]1O (stereo partly shown) [N-glycolyneuraminic acid] | non-inhibitory
OC[C@H]1O[C@H](OC[C@H]2O[C@H](O[C@]3(CO)O[C@H](CO)[C@@H](O)[C@@H]3O)[C@H](O)[C@@H](O)[C@@H]2O)[C@H](O)[C@@H](O)[C@H]1O [raffinose] | non-inhibitory
siaylosyl-Tn | non-inhibitory
paralacto-n-hexaose | non-inhibitory
O=C[C@H](O)[C@@H](O)[C@@H](O)[C@H](O)CO [galactose] | non-inhibitory
C[C@H](O)[C@@H](O)[C@@H](O)[C@H](O)C=O [fucose] | non-inhibitory
pectin | non-inhibitory
CC(=O)N[C@H]1[C@H]([C@H](O)[C@H](O)CO)OC(O)(C(=O)O)C[C@@H]1O (stereo partly shown) [N-acetylneuraminic acid] | non-inhibitory
OC[C@H]1O[C@H](OCC2O[C@@H](O)[C@H](O)[C@@H](O)[C@@H]2O)[C@H](O)[C@@H](O)[C@H]1O (stereo partly shown) [melibiose] | non-inhibitory
bovine submaxillary mucin | inhibited
CC(=O)NC1C(O)CC(OCC2OC(OC3C(CO)OC(O)C(O)C3O)C(O)C(O)C2O)(C(=O)O)OC1C(O)C(O)CO (stereo not shown) [6′-n-acetylneuraminyl-lactose] | non-inhibitory
OC[C@H]1O[C@H](OC[C@H]2O[C@H](OC[C@H]3O[C@H](O[C@]4(CO)O[C@H](CO)[C@@H](O)[C@@H]4O)[C@H](O)[C@@H](O)[C@@H]3O)[C@H](O)[C@@H](O)[C@H]2O)[C@H](O)[C@@H](O)[C@H]1O [stachyose] | non-inhibitory
OC[C@H]1O[C@@H](O[C@H]2[C@H](O)[C@@H](O)C(O)O[C@@H]2CO)[C@H](O)[C@@H](O)[C@H]1O (stereo partly shown) [lactose] | non-inhibitory
CC(=O)N[C@H]1C(O)O[C@H](CO)[C@H](O)[C@@H]1O[C@@H]1O[C@H](CO)[C@H](O)[C@H](O)[C@H]1O (stereo partly shown) [Galβ1-3GalNAc] | non-inhibitory
OC[C@H]1O[C@@H](O[C@@H]2[C@@H](CO)OC(O)(CO)[C@H]2O)[C@H](O)[C@@H](O)[C@H]1O (mixture of isomers) [lactulose] | non-inhibitory
polygalacturonic acid | non-inhibitory
B1 | non-inhibitory
B2 | non-inhibitory
